Test results from patent publication US20250051347A1, “BIFUNCTIONAL CHIMERIC HETEROCYCLIC COMPOUND AND USE THEREOF AS ANDROGEN RECEPTOR DEGRADER” (Hinova Pharmaceuticals, Inc., priority 2021, published 2025).
Read-outs that look alike come from different tables or passages of the source.

Columns and labels:
[1] = target: T1, androgen receptor (AR) splicing variant AR-v7 (Homo sapiens, UniProt P10275); test: Degradation activity on androgen receptor splicing variant AR-v7 in 22RV1 cells (ELISA); assay type: cell-based; conditions: AR-v7 degradation in 22RV1 cells, 48 h, class symbols
T1 construct: The degradation activity of compounds on AR-v7 in 22RV1 cells; host or cells: 22RV1 cells
T1 sequence (P10275 1-644 isoform P10275-3): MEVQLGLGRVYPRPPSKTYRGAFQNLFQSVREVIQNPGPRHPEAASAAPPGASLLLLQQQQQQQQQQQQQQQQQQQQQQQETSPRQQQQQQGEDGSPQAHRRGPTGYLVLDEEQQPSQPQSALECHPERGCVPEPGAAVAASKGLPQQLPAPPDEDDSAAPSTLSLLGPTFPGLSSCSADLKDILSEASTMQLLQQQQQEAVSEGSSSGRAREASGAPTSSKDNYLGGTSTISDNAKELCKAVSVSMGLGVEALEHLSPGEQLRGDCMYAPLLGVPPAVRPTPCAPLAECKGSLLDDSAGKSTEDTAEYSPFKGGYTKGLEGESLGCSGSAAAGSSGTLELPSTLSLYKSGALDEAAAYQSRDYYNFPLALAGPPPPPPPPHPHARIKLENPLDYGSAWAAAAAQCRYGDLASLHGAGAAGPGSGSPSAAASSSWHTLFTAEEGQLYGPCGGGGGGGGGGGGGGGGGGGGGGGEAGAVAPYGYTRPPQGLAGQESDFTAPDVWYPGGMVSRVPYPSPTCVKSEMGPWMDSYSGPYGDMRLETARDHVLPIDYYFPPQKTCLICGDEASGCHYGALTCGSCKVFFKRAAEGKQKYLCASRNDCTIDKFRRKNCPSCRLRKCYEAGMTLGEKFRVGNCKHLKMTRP

[2] = tested on: 22RV1 cells
Description: • 22RV1 cell lines (Cobioer, CBP6034) • Penicillin-Streptomycin (Hyclone, Cat. No. SV30010) • Cell counting kit-8 (Signalway Antibody, Cat. No. CP002)
Then, two wells were set for each concentration. 20 μL of the diluted compound solution was added to the cell culture well, and then the plate was gently shaken to mix. In addition, the experiment included 3 negative control wells only containing cells and 3 blank control wells only containing culture medium.

[3] = Homo sapiens, 22Rv1, 144 h, read-out: 22RV1 IC50 (nM), 22RV1 cells, 6 days culture, CCK-8, OD 450 nm
[4] = read-out: 22RV1 IC50, 22RV1 cells, 6 days culture, CCK-8, OD 450 nm

Compound	DC50 [1] [nM]	IC50 [2, 3] [nM]	IC50 ([2]; Homo sapiens, 22Rv1, 144 h, read-out: 22RV1 IC50 (nM)) [nM]	IC50 [2, 4] [nM]
CC(C)(c1ccc(Oc2cccnn2)cc1)c1ccc(O[C@H]2C[C@H](Nc3ccc4c(c3)C(=O)N(C3CCC(=O)NC3=O)C4=O)C2)cc1 (stereo partly shown) [Example 333, 2-(2,6-dioxopiperidin-3-yl)-5-((1r,3r)-3-(4-(2-(4-(pyridazine-3-oxy)phenyl)propan-2-yl)phenoxy)cyclobutyl)aminoisoindolin-1,3-dione]	< 10	3	–	–
Cc1nc(-c2ccc(Oc3ccc(C(C)(C)c4ccc(O[C@H]5C[C@H](Nc6ccc7c(c6)C(=O)N(C6CCC(=O)NC6=O)C7=O)C5)cc4)cc3)cn2)no1 (stereo partly shown) [Example 581]	< 10	10	–	–
CC(C)(c1ccc(OCCCNc2ccc3c(c2)C(=O)N(C2CCC(=O)NC2=O)C3=O)cc1)c1ccc(OCc2ccnc(-n3nccn3)n2)cc1 (stereo not shown) [Example 229, 5-((3-(4-(2-(4-((2-(2H-1,2,3-triazol-2-yl)pyrimidin-4-yl)methoxy)phenyl)propan-2-yl)phenoxy)propyl)amino)-2-(2,6-dioxopiperidin-3-yl)isoindolin-1,3-dione]	11 to 100	31	–	–
CC(C)(c1ccc(Oc2ccc(-n3ccnn3)nc2)cc1)c1ccc(O[C@H]2C[C@H](Nc3ccc4c(c3)C(=O)N(C3CCC(=O)NC3=O)C4=O)C2)cc1 (stereo partly shown) [Example 207, 5-((1r,3r)-3-(4-(2-(4-((6-(1H-1,2,3-triazol-1-yl)pyridin-3-yl)oxy)phenyl)propan-2-ylphenoxy)cyclobutyl)amino)-2-(2,6-dioxopiperidin-3-yl) isoindolin-1,3-dione]	< 10	16	–	–
CC(C)(c1ccc(OCCCNc2ccc3c(c2)C(=O)N(C2CCC(=O)NC2=O)C3=O)cc1)c1ccc(OCc2ccnc(-n3ccnc3)n2)cc1 (stereo not shown) [Example 391, 5-((3-(4-(2-(4-((2-(1H-imidazol-1-yl)pyrimidin-4-yl)methoxy)phenyl)propan-2-yl)phenoxy)propyl)amino)-2-(2,6-dioxopiperidin-3-yl)isoindol-1,3-dione]	11 to 100	56	–	–
CC(C)(c1ccc(OCc2ccnc(N3CC4(COC4)C3)n2)cc1)c1ccc(C(=O)NC2CN(c3ccc4c(c3)C(=O)N(C3CCC(=O)NC3=O)C4=O)C2)cc1 (stereo not shown) [Example 506, 4-(2-(4-((2-(2-oxa-6-azaspiro[3.3]heptan-6-yl)pyrimidin-4-yl)methoxy)phenyl)propan-2-yl)-N-(1-(2-(2,6-dioxopiperidin-3-yl)-1,3-dioxoisoindolin-5-yl)azetidin-3-yl)benzamide]	< 10	4	–	–
CC(=O)c1cnc(Oc2ccc(C(C)(C)c3ccc(O[C@H]4C[C@H](Nc5ccc6c(c5)C(=O)N(C5CCC(=O)NC5=O)C6=O)C4)cc3)cc2)cn1 (stereo partly shown) [Example 596]	< 10	10	–	–
CC(CNc1ccc2c(c1)C(=O)N(C1CCC(=O)NC1=O)C2=O)COc1ccc(C(C)(C)c2ccc(OCc3ccnc(N4CC5(COC5)C4)n3)cc2)cc1 (stereo not shown) [Example 496, 5-((3-(4-(2-(4-((2-(2-oxa-6-azaspiro[3.3]heptan-6-yl)pyrimidin-4-yl)methoxy)phenyl)propan-2-yl)phenoxy)-2-methylpropyl)amino)-2-(2,6-dioxopiperidin-3-yl)isoindolin-1,3-dione]	< 10	–	61	–
CC(C)(c1ccc(OCc2ccnc(N3CC(N4CC(F)C4)C3)n2)cc1)c1ccc(O[C@H]2C[C@H](Nc3ccc4c(c3)C(=O)N(C3CCC(=O)NC3=O)C4=O)C2)cc1 (stereo partly shown) [Example 420]	< 10	5	–	–
CC(=O)c1ccc(Oc2ccc(C(C)(C)c3ccc(O[C@H]4C[C@H](Nc5ccc6c(c5)C(=O)N(C5CCC(=O)NC5=O)C6=O)C4)cc3)cc2)cn1 (stereo partly shown) [Example 124]	< 10	8	–	–
Cc1nc(-c2cnc(Oc3ccc(C4(c5ccc(O[C@H]6C[C@H](Nc7ccc8c(c7)C(=O)N(C7CCC(=O)NC7=O)C8=O)C6)cc5)CCCC4)cc3)cn2)no1 (stereo partly shown) [Example 601]	< 10	11	–	–
Cc1nnc(-c2nccc(Oc3ccc(C(C)(C)c4ccc(O[C@H]5C[C@H](Nc6ccc7c(c6)C(=O)N(C6CCC(=O)NC6=O)C7=O)C5)cc4)cc3)n2)o1 (stereo partly shown) [Example 289]	< 10	7	–	–
CC(C)(c1ccc(OCc2ccnc(N3CC[C@H](O)C3)n2)cc1)c1ccc(OC2CC(Nc3ccc4c(c3)C(=O)N(C3CCC(=O)NC3=O)C4=O)C2)cc1 (stereo partly shown) [Example 398]	< 10	–	–	9
CCC(CC)(c1ccc(Oc2ccc(-c3noc(C)n3)nn2)cc1)c1ccc(O[C@H]2C[C@H](Nc3ccc4c(c3)C(=O)N(C3CCC(=O)NC3=O)C4=O)C2)cc1 (stereo partly shown) [Example 527]	< 10	3	–	–
CC(C)(c1ccc(OCc2ccnc(-c3cn[nH]c3)n2)cc1)c1ccc(O[C@H]2C[C@@H](Nc3ccc4c(c3)C(=O)N(C3CCC(=O)NC3=O)C4=O)C2)cc1 (stereo partly shown) [Example 273]	< 10	10	–	–
CC(C)(c1ccc(OCc2cccc(N3CC4(COC4)C3)n2)cc1)c1ccc(O[C@H]2C[C@H](Nc3ccc4c(c3)C(=O)N(C3CCC(=O)NC3=O)C4=O)C2)cc1 (stereo partly shown) [Example 413]	< 10	11	–	–
CC(O)c1ncc(Oc2ccc(C3(c4ccc(O[C@H]5C[C@H](Nc6ccc7c(c6)C(=O)N(C6CCC(=O)NC6=O)C7=O)C5)cc4)CCCC3)cc2)cn1 (stereo partly shown) [Example 134]	< 10	< 1	–	–
CC(C)(c1ccc(OCc2ccnc(-n3ccnn3)n2)cc1)c1ccc(O[C@H]2C[C@H](Nc3ccc4c(c3)C(=O)N(C3CCC(=O)NC3=O)C4=O)C2)cc1 (stereo partly shown) [Example 230]	< 10	9	–	–
CC(C)(c1ccc(OCCCNc2ccc3c(c2)C(=O)N(C2CCC(=O)NC2=O)C3=O)cc1)c1ccc(OCc2ccnc(N3CC4(COC4)C3)n2)cc1 (stereo not shown) [Example 73, 5-((3-(4-(2-(4-((2-(2-oxa-6-azaspiro[3.3]heptan-6-yl)pyrimidin-4-yl)methoxy)phenyl)propan-2-yl)phenoxy)propyl)amino)-2-(2,6-dioxopiperidin-3-yl)isoindolin-1,3-dione]	11 to 100	25	–	–
CNc1nccc(COc2ccc(C(C)(C)c3ccc(OCCCNc4ccc5c(c4)C(=O)N(C4CCC(=O)NC4=O)C5=O)cc3)cc2)n1 (stereo not shown) [Example 390]	11 to 100	26	–	–
Cc1nnc(Oc2ccc(C(C)(C)c3ccc(O[C@H]4C[C@H](Nc5ccc6c(c5)C(=O)N(C5CCC(=O)NC5=O)C6=O)C4)cc3)cc2)o1 (stereo partly shown) [Example 429, 2-(2,6-dioxopiperidin-3-yl)-5-((1r,3r)-3-(4-(2-(4-((5-methyl-1,3,4-oxadiazol-2-yl)oxy)phenyl)propan-2-yl)phenoxy)cyclobutyl)aminoisoindol-1,3-dione]	< 10	9	–	–
Cc1nnc(-c2ncc(F)cc2Oc2ccc(C(C)(C)c3ccc(O[C@H]4C[C@H](Nc5ccc6c(c5)C(=O)N(C5CCC(=O)NC5=O)C6=O)C4)cc3)cc2)o1 (stereo partly shown) [Example 95, 2-(2,6-dioxopiperidin-3-yl)-5-(((1r,3r)-3-(4-(2-(4-((5-fluoro-2-(5-methyl-1,3,4-oxadiazol-2-yl)pyridin-3-yl)oxy)phenyl)propan-2-yl)phenoxy)cyclobutyl)amino)isoindolin-1,3-dione]	< 10	6	–	–
CC(C)C(=O)c1ncc(Oc2ccc(C(C)(C)c3ccc(O[C@H]4C[C@H](Nc5ccc6c(c5)C(=O)N(C5CCC(=O)NC5=O)C6=O)C4)cc3)cc2)cn1 (stereo partly shown) [Example 291]	< 10	16	–	–
CCC(CC)(c1ccc(Oc2ccc(C(C)O)nn2)cc1)c1ccc(O[C@H]2C[C@@H](Nc3ccc4c(c3)C(=O)N(C3CCC(=O)NC3=O)C4=O)C2)cc1 (stereo partly shown) [Example 430]	< 10	9	–	–
CC(C)(c1ccc(Oc2cc(N3CC4(COC4)C3)ncn2)cc1)c1ccc(O[C@H]2C[C@@H](Nc3ccc4c(c3)C(=O)N(C3CCC(=O)NC3=O)C4=O)C2)cc1 (stereo partly shown) [Example 571]	< 10	5	–	–
CC(=O)c1cnc(Oc2ccc(C3(c4ccc(OC5CC(Nc6ccc7c(c6)C(=O)N(C6CCC(=O)NC6=O)C7=O)C5)cc4)CCCC3)cc2)cn1 (stereo not shown) [Example 177, 5-(((1r,3r)-3-(4-(1-(4-((5-acetylpyrazin-2-yl)oxy)phenyl)cyclopentyl)phenoxy)cyclobutyl)amino)-2-(2,6-dioxopiperidin-3-yl)isoindolin-1,3-dione]	< 10	–	–	2
